Target: T1, hCTPS1 enzyme (Homo sapiens, UniProt P17812)
T1 sequence (P17812 1-591): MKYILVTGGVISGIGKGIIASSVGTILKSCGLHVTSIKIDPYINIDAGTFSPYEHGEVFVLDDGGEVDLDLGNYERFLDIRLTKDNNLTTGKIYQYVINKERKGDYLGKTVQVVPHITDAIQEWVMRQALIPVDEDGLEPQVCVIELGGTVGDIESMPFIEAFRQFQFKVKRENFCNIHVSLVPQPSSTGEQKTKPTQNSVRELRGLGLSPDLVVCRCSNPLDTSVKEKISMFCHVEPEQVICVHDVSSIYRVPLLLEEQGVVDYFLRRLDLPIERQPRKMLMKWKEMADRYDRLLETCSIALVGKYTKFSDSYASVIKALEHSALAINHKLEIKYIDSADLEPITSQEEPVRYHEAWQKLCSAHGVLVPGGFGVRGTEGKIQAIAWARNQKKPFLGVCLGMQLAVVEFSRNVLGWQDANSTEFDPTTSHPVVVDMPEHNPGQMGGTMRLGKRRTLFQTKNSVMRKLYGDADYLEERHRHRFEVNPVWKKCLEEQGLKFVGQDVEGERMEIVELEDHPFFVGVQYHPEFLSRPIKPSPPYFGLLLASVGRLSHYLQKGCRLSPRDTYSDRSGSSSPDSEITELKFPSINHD
Experiment: Inhibition of CTPS1 enzyme activity (ADP-Glo method)
Type: biochemical
Details: hCTPS1, 90 min reaction at 25° C.
Procedure: The enzyme activity of CTPS1 was tested using the ADP-Glo method. Compounds were serially diluted in DMSO with 3-fold gradients across ten concentrations. Transfer 0.1 μL of diluted compound to a 384-well plate, centrifuge at 1000 rpm for 1 min. Add 2.5 μL of hCTPS1 enzyme working solution, centrifuge at 1000 rpm for 1 min, and incubate at 25° C. for 10 min. Add 2.5 μL of ATP & UTP solution and incubate at 25° C. for 10 min. Add 5 μL of substrate solution to initiate the reaction and incubate at 25° C. for 90 min. Add 10 μL of ADP-Glo solution to the 384-well plate, centrifuge at 1000 rpm for 1 min, incubate at 25° C. for 40 min, add 20 μL of detection solution, centrifuge at 1000 rpm for 1 min, and incubate at 25° C. for 60 min. […] were read using a BMG microplate reader. Inhibition rate (%) was calculated as follows: Inhibition rate (%)=[(DMSO control well signal−Compound well signal)/(DMSO control well signal−Blank control well signal)]×100%. IC50 values for compounds were analyzed by nonlinear regression in XLFit 5.5.0 software using the formula: Y=Bottom+(Top−Bottom)/(1+10^((LogIC50−X)*HillSlope)) where Y is the inhibition rate and X is the log value of compound concentration.

SMILES | IC50 [nM]
CCOc1cncc(-c2ccc(NC(=O)C3(c4ccnc(NS(=O)(=O)C5CC5)n4)CCC(=CCOC)CC3)nc2)n1 (single isomer, unassigned) [Compound 18] | < 50
CCOc1cncc(-c2ccc(NC(=O)C3(c4ccnc(NS(=O)(=O)C5CC5)n4)CCC(=C(C)C)CC3)nc2)n1 (stereo not shown) [Compound 2] | < 50
CCOc1cncc(-c2ccc(NC(=O)C3(c4ccnc(NS(=O)(=O)C5CC5)n4)CCC(=CC#N)CC3)nc2)n1 (stereo not shown) [Compound 8] | < 50
CCOc1cncc(-c2ccc(NC(=O)C3(c4ccnc(NS(=O)(=O)C5CC5)n4)CCC(=CCN4CCOCC4)CC3)nc2)n1 (stereo not shown) [Compound 11] | < 25
CCOc1cncc(-c2ccc(C(=O)NC3(c4ccnc(NS(=O)(=O)C5CC5)n4)CCC(=C(F)F)CC3)nc2)n1 (stereo not shown) [Compound 70] | < 200

Tested on: Jurkat cells
Experiment: Inhibition of Jurkat cell proliferation (CellTiter-Glo, 72 hours)
Type: cell-based
Details: Homo sapiens; Jurkat cells, 72 hours, CellTiter-Glo; read-out: Jurkat (IC50)
Procedure: Select Jurkat cells in good growth condition and digest them with trypsin. Add fresh culture medium, mix thoroughly, and centrifuge at 1000 rpm for 5 minutes. Seed the cells into a 96-well plate at a density of 10,000 cells per well, and incubate overnight in a 37° C. incubator. On the following day, take out of the culture plate and treat the cells with compounds prepared in a five-fold serial dilution. Return the plate to the 37° C. incubator and continue incubation for 72 hours.
After incubation, bring out the cell culture plate and equilibrate it to room temperature. Add 100 μL of CellTiter-Glo reagent to each well, shake in the dark for 2 minutes, and incubate for 10 minutes. Measure the luminescence using an Enspire plate reader. Calculate the inhibition rate using the following formula: Inhibition rate (%)=(1−(RLU_compound−RLU_blank)/(RLU_DMSO−RLU_blank))×100%. Plot the dose-response curve and calculate the IC50 value using XLFit.

SMILES | IC50 [nM]
CCOc1cncc(-c2ccc(NC(=O)C3(c4ccnc(NS(=O)(=O)C5CC5)n4)CCC(=CCOC)CC3)nc2)n1 (single isomer, unassigned) [Compound 18] | < 50
CCOc1cncc(-c2ccc(NC(=O)C3(c4ccnc(NS(=O)(=O)C5CC5)n4)CCC(=C(C)C)CC3)nc2)n1 (stereo not shown) [Compound 2] | < 50
CCOc1cncc(-c2ccc(NC(=O)C3(c4ccnc(NS(=O)(=O)C5CC5)n4)CCC(=CCO)CC3)nc2)n1 (stereo not shown) [Compound 5] | < 15
CCOc1cncc(-c2ccc(NC(=O)C3(c4ccnc(N(C)S(=O)(=O)C5CC5)n4)CCC(=CCO)CC3)nc2)n1 (stereo not shown) [Compound 6] | < 100
O=C(Nc1ccc(-c2cncc(OC3CC(=C(F)F)C3)n2)cn1)C1(c2ccnc(NS(=O)(=O)C3CC3)n2)CCOCC1 (stereo not shown) [Compound 7] | < 750
CCOc1cncc(-c2ccc(NC(=O)C3(c4ccnc(NS(=O)(=O)C5CC5)n4)CCC(=CC#N)CC3)nc2)n1 (stereo not shown) [Compound 8] | < 15
C=C1CCC(C(=O)Nc2ccc(-c3cncc(OCC)n3)cn2)(c2ccnc(NS(=O)(=O)C3CC3)n2)CC1 [Compound 9] | < 50
CCOc1cncc(-c2ccc(NC(=O)C3(c4ccnc(NS(=O)(=O)C5CC5)n4)CCC(=CCN4CCOCC4)CC3)nc2)n1 (stereo not shown) [Compound 11] | < 15
CCOc1cncc(-c2ccc(NC(=O)C3(c4ccnc(NS(=O)(=O)C5CC5)n4)CCC(=CCOC)CC3)nc2)n1 (stereo not shown) [Compound 17] | < 200
CCOc1cncc(-c2ccc(NC(=O)C3(c4ccnc(NS(=O)(=O)C5CC5)n4)CC(=CF)C3)nc2)n1 (stereo not shown) [Compound 20] | < 200
CCOc1cncc(-c2ccc(NC(=O)C3(c4ccnc(NS(=O)(=O)C5CC5)n4)CCC(=CCc4ccccc4)CC3)nc2)n1 (stereo not shown) [Compound 21] | < 1000
CCOc1cncc(-c2ccc(NC(=O)C3(c4ccnc(NS(=O)(=O)C5CC5)n4)CCN(c4cccnc4)CC3)nc2)n1 [Compound 25] | < 30
CCOc1cncc(-c2ccc(NC(=O)C(=C3CCOCC3)c3ccnc(NS(=O)(=O)C4CC4)n3)nc2)n1 [Compound 33] | < 1000
CCOc1cncc(-c2ccc(NC(=O)C3(c4ccnc(NS(=O)(=O)C5CC5)n4)CCN(c4ccncc4)CC3)nc2)n1 [Compound 35] | < 200
CCOc1cncc(-c2ccc(NC(=O)C3(c4ccnc(NS(=O)(=O)C5CC5)n4)CCC(=Cc4ccccn4)CC3)nc2)n1 (stereo not shown) [Compound 38] | < 30
CCOc1cncc(-c2ccc(NC(=O)C3(c4ccnc(NS(=O)(=O)C5CC5)n4)CCC(=CC(N)=O)CC3)nc2)n1 (stereo not shown) [Compound 40] | < 200
CCOc1cncc(-c2ccc(NC(=O)C3(c4ccnc(NS(=O)(=O)C5CC5)n4)CCC(=CCN)CC3)nc2)n1 (stereo not shown) [Compound 41] | < 100

SMILES | IC50 [nM]
CCOc1cncc(-c2ccc(NC(=O)C3(c4ccnc(NS(=O)(=O)C5CC5)n4)CCC(=Cc4ccoc4)CC3)nc2)n1 (stereo not shown) [Compound 42] | < 50
CCOC(=O)C(F)=C1CCC(C(=O)Nc2ccc(-c3cncc(OCC)n3)cn2)(c2ccnc(NS(=O)(=O)C3CC3)n2)CC1 (stereo not shown) [Compound 43] | < 50
CCOc1cncc(-c2ccc(NC(=O)C3(c4ccnc(NS(=O)(=O)C5CC5)n4)CCC(=C(F)C#N)CC3)nc2)n1 (stereo not shown) [Compound 49] | < 50
CCOc1cncc(-c2ccc(NC(=O)C3(c4ccnc(NS(=O)(=O)C5CC5)n4)CCC(=C(C)C4COC4)CC3)nc2)n1 (stereo not shown) [Compound 51] | < 30
CCOc1cncc(-c2ccc(NC(=O)C3(c4ccnc(NS(=O)(=O)C5CC5)n4)CCC(=Cc4ccsc4)CC3)nc2)n1 (stereo not shown) [Compound 53] | < 100
CCOc1cncc(-c2ccc(NC(=O)C3(c4ccnc(NS(=O)(=O)C5CC5)n4)CCC(=Cc4cncnc4)CC3)nc2)n1 (stereo not shown) [Compound 56] | < 50
CCOc1cncc(-c2ccc(NC(=O)C3(c4ccnc(NS(=O)(=O)C5CC5)n4)CCC(=CC(C)(C)O)CC3)nc2)n1 (stereo not shown) [Compound 57] | < 50
CCOc1cncc(-c2ccc(NC(=O)C3(c4ccnc(NS(=O)(=O)C5CC5)n4)CCC(=CC4CC(O)C4)CC3)nc2)n1 (stereo not shown) [Compound 59] | < 15
CCOc1cncc(-c2ccc(NC(=O)C3(c4ccnc(NS(=O)(=O)C5CC5)n4)CCC(=CC(C)=O)CC3)nc2)n1 (stereo not shown) [Compound 60] | < 30
CCOc1cncc(-c2ccc(NC(=O)C3(c4ccnc(NS(=O)(=O)C5CC5)n4)CCC(=C(F)C(C)=O)CC3)nc2)n1 (stereo not shown) [Compound 61] | < 50
CCOc1cncc(-c2ccc(NC(=O)C3(c4ccnc(NS(=O)(=O)C5CC5)n4)CCC4(CC3)CC(=C(F)F)C4)nc2)n1 (stereo not shown) [Compound 64] | < 50
CCOc1cncc(-c2ccc(NC(=O)C3(c4ccnc(NS(=O)(=O)C5CC5)n4)CCC(=C(F)F)CC3)c(F)c2)n1 (stereo not shown) [Compound 65] | < 50
CCOc1cncc(-c2ccc(NC(=O)C3(c4nccc(NS(=O)(=O)C5CC5)n4)CCC(=C(F)F)CC3)nc2)n1 (stereo not shown) [Compound 66] | < 50
CCOc1cncc(-c2cnc(NC(=O)C3(c4ccnc(NS(=O)(=O)C5CC5)n4)CCC(=C(F)F)CC3)c(F)c2)n1 (stereo not shown) [Compound 71] | < 200
CCOc1cncc(-c2cnc(C(=O)NC3(c4ccnc(NS(=O)(=O)C5CC5)n4)CCC(=C(F)F)CC3)s2)n1 (stereo not shown) [Compound 72] | < 200
CCOc1cncc(-c2ccc(NC(=O)C3(c4csc(NS(=O)(=O)C5CC5)n4)CCC(=C(F)F)CC3)nc2)n1 (stereo not shown) [Compound 73] | < 30

Tested on: not listed separately
Experiment: in vivo
Parameters: species or system SD rats
Details: male, SD, rat, po, 2 mg/kg
Procedure: Instrumentation: SCIEX Triple Quad 6500+ triple quadrupole liquid chromatography-mass spectrometry system (LC-MS/MS), operating software is Analyst 1.7.2 (Applied Biosystems, USA); ExionLC liquid chromatography system; Microsoft Excel was used for data calculation and processing. Pharmacokinetic parameters were calculated using the statistical moment method with WinNonlin 8.2 software. Key kinetic parameters included Tmax, T1/2, Cmax, AUC0-24 h etc. Column: Synergi 4 μm Fusion-RP 80 Å Luna C18 2 mm*50 mm, 4 μm; Column temperature: 40° C.; Mobile phase A: Water (0.1% formic acid); Mobile phase B: Acetonitrile; Flow rate: 0.8 mL/min; Gradient elution is adopted, the elution gradient is 0.10 min: 15% B; 1.60 min: 95% B; 1.90 min: 95% B; 1.91 min: 15% B; 2.20 min: 15% B. Injection volume: 1 μL.
Animals: 3 male SD rats with a weight range of 200-220 g were purchased and kept in the laboratory of the Experimental Animal Center for 3 days and then used. They were fasted for 12 hours predose and 4 hours after dosing. Drinking water was free during the test. After the rats were gavage, blood samples were taken according to the established time point.
Solvent: 0.4% ethanol+0.4% Tween80+99.2% (0.5% methylcellulose M450). Preparation of the solution for intragastric administration: Compounds were accurately weighed and added to the solvent. The mixture was then subjected to vortex mixing and sonication until a homogeneous suspension was achieved, thereby preparing medicinal solutions of the desired concentrations.
Compound samples: Typically, multiple structurally analogous compounds (with molecular weights differing by more than 2 units) were accurately weighed and administered together (cassette PK). This approach allows for the simultaneous screening of multiple compounds and comparison of their oral absorption rates. Single compound administration was also employed to study the pharmacokinetics of drug samples in rats.
After intragastric administration, blood was collected from the jugular vein at 0.25, 0.5, 1, 2, 4, 8, 10 and 24 hours. Transfer 20 μL of plasma sample (for blank samples and internal standard blank samples, add 20 μL of blank plasma) to a 1.5 mL centrifuge tube, add 200 μL of internal standard solution (50% methanol in acetonitrile (concentration 100 ng/mL)) (for Double blank samples, add 200 μL of 50% methanol in acetonitrile solution). Vortex the samples for 5 minutes, then centrifuge at 14000 rpm and 4° C. for 5 minutes. Transfer 80 μL and add to 80 μL of water, mix uniformly, and submit for LC-MS/MS analysis.
The compounds were accurately weighed to prepare different concentrations, and quantitative analysis on mass spectrometry was performed to establish a standard curve, and then the concentration of the above-mentioned compound in the plasma was tested to obtain its concentration at different time points. All measurement data were collected and processed by relevant software, and the statistical moment method was used to calculate the pharmacokinetic parameters (mainly including kinetic parameters Tmax, T1/2, Cmax, AUC0-24 h etc).

SMILES | AUC(0-t) [ng·h/mL] | Cmax [ng/mL] | Tmax [h] | half-life [h]
CCOc1cncc(-c2ccc(NC(=O)C3(c4ccnc(NS(=O)(=O)C5CC5)n4)CCC(=C(C)C4COC4)CC3)nc2)n1 (stereo not shown) [Compound 51] | 62.7 | 14.5 | 4 | 1.56

Same assay, conditions: male, SD, rat, po, 3 mg/kg

SMILES | AUC(0-t) [ng·h/mL] | Cmax [ng/mL] | Tmax [h] | half-life [h]
CCOc1cncc(-c2ccc(NC(=O)C3(c4ccnc(NS(=O)(=O)C5CC5)n4)CCC(=CCO)CC3)nc2)n1 (stereo not shown) [Compound 5] | 417 | 359 | 0.25 | 1.73

Source: patent publication US20260226026A1, “COMPOUND AS CTPS1 INHIBITOR” (Hangzhou Innogate Pharma Co., Ltd., priority 2023, published 2026)
